Data as given in patent publication US20130089510A1, “OTIC COMPOSITIONS FOR THE TREATMENT OF INFECTIONS OF THE INTERNAL AND EXTERNAL EAR IN MAMMALS” (Foresight Biotherapeutics, Inc., priority 2008, published 2013).

Key:
[1] = Reactivity/compatibility of PVP-I with other active ingredients
external ear = conditions: in vivo; cited from earlier work

| Compound | available iodine in the PVP-I complex ([1]; with Ketorolac, depending on the ratio between Ketorolac and PVP-I) | concentration known to be safe for use in the external ear (and inner ear through a ruptured tympanic membrane) (external ear) | consumption of the agent on reaction with PVP-I ([1]; mixed with PVP-I) |
| --- | --- | --- | --- |
| 1-Vinyl-2-pyrrolidinone polymers, iodine complex [PVP-I] | reduced significantly | up to 10.0 % (w/w, aqueous) |  |
| O=C(c1ccccc1)c1ccc2n1CCC2C(=O)O (stereo not drawn) [Ketorolac] |  |  | completely consumed |
